The values that follow come from ChEMBL document CHEMBL1201862, “PubChem BioAssay data set” (2004).

Common to all, as to experiment: DTP human tumour cell line panel, 48 h
In assay [1] the test system is SNB-19.
Assay [2] has as its system NCI/ADR-RES.
Assay [3] relates to M14.
For assay [4], the system named is EKVX.
Assay [5] concerns UACC-62.
For assay [6], the system named is SNB-75.
For assay [7], the system named is RXF 393.
Assay [8] deals with HOP-92.
The subject of assay [9] is NCI-H23.
In assay [10] the test system is HCT-116.
Assay [11] relates to HCC 2998.
Assay [12] deals with OVCAR-3.
Assay [13] concerns SR.
Assay [14] relates to Malme-3M.
Assay [15] has as its system HCT-15.
For assay [16], the system named is OVCAR-8.
Assay [17] deals with COLO 205.
Assay [18] has as its system SF-295.
The subject of assay [19] is HOP-62.
Assay [20] concerns A498.

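Following 48 hours of exposure in 96-well plates, responses at five concentrations were used to interpolate endpoints linearly. Abbreviation: GI50, concentration required for 50% inhibition of growth.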 The source made the active and inactive calls. No stated cut-off is given here; in the data, active = GI50 up to about 1.1 µM and inactive = higher. Some results are limits rather than exact numbers.

By GI50 is commonly meant the concentration that inhibits growth by half. On to `COC(=O)C1=CC(=O)OC1(OO)c1ccc(Br)cc1` (stereo unspecified), for which the GI50 in assay [1], in assay [2], in assay [3], in assay [4], in assay [5] and in assay [6] was > 100 µM (inactive) throughout. Moreover, the GI50 in assay [7] is > 100 µM (inactive); in assay [8], > 100 µM (inactive); in assay [9], > 100 µM (inactive); in assay [10], 47.1 µM (inactive); in assay [11] it was > 100 µM (inactive); in [12] it was > 100 µM (inactive). The GI50 in [13] was 55.8 µM (inactive); in [14] it was > 100 µM (inactive); in assay [15], 46.5 µM; in assay [16], > 100 µM (inactive); in assay [17], 44.3 µM (inactive); in assay [18], > 100 µM (inactive).

On to `CC1(C)/C(=N\Nc2ccc([N+](=O)[O-])cc2[N+](=O)[O-])C2CCC1C2` (stereo unspecified), for which the GI50 in [1] was > 100 µM (inactive); in [2], > 100 µM (inactive); in [3], > 100 µM (inactive); in assay [4] it was > 100 µM (inactive); in assay [5], > 100 µM (inactive); in [6] it was 3.34 µM (inactive). In addition, the GI50 was 93.8 µM (inactive) in [8]; > 100 µM (inactive) in assay [9]; 5.65 µM (inactive) in assay [10]; > 100 µM (inactive) in assay [12]; > 100 µM (inactive) in assay [13]; > 100 µM (inactive) in [14]. Further, the GI50 in [15] is above 100 µM; in assay [16], > 100 µM (inactive); in assay [17], > 100 µM (inactive); in assay [18] it was 15.2 µM (inactive); in assay [19], 74.5 µM (inactive).

For `O=c1cc(NNc2ccc(F)cc2)[nH]c(=O)[nH]1`, the GI50 in assay [1] was 19.3 µM (inactive); in assay [2], 28.2 µM (inactive); in assay [3], 8.85 µM (inactive); in [4], 18.3 µM (inactive); in assay [5], 15.1 µM (inactive); in assay [6] it was 12.7 µM (inactive). Further, the GI50 in assay [7] was 15.5 µM (inactive); in assay [9], 29.4 µM (inactive); in assay [10], 17.9 µM (inactive); in assay [11], 23.4 µM (inactive); in [12], 16.4 µM (inactive); in [13], 35.1 µM (inactive). Also, the GI50 in assay [14] is 19.8 µM (inactive); in [15], 16.1 µM; in [16], 23.1 µM (inactive); in assay [20], 35.3 µM (inactive); in assay [17], 16.5 µM (inactive); in assay [18] it was > 100 µM (inactive). The GI50 in assay [19] is 17.1 µM (inactive).

As for `N#CC(C#N)/N=N/c1ccc(-c2nc3ccccc3[nH]2)cc1`, the GI50 in assay [1] was > 100 µM (inactive); in assay [2], 17.6 µM (inactive); in assay [3] it was 20.8 µM (inactive); in assay [4], 50.7 µM (inactive); in assay [6], 42 µM (inactive); in assay [7] it was 19.2 µM (inactive). Besides, the GI50 in assay [8] is 22.5 µM (inactive); in [9] it was 20 µM (inactive); in assay [10] it was 15.4 µM (inactive); in assay [12], 13.8 µM (inactive); in assay [13], 18.5 µM (inactive); in [14] it was 13.6 µM (inactive). Further, the concentration for 50% growth inhibition (GI50) is 21.7 µM in [15]; 23.1 µM (inactive) in assay [16]; > 100 µM (inactive) in assay [20]; 7.57 µM (inactive) in assay [17]; > 100 µM (inactive) in [18]; > 100 µM (inactive) in assay [19].

Turning to `CCOc1c2c(cc3c1C(=O)c1c(OC)cccc1C3=O)C=C(OC)CC2`, the GI50 is > 25 µM (inactive) in assay [1]; 23.2 µM (inactive) in assay [2]; 18.8 µM (inactive) in assay [3]; > 25 µM (inactive) in [4]; 10.3 µM (inactive) in assay [5]; 8.28 µM (inactive) in assay [6]. For the same compound, the GI50 in assay [7] was 12 µM (inactive); in assay [8], > 25 µM (inactive); in assay [9] it was > 25 µM (inactive); in [10], 17.4 µM (inactive); in [12], > 25 µM (inactive); in [13], 7.45 µM (inactive). Also, the GI50 is 13.6 µM (inactive) in assay [14]; 11.9 µM in [15]; > 25 µM (inactive) in assay [16]; > 25 µM (inactive) in [20]; 21.6 µM (inactive) in [17]; 10.7 µM (inactive) in assay [18]. The GI50 in assay [19] is > 25 µM (inactive).

Regarding `CCOC(=O)NC(C(=O)OCC)C(F)(F)F` (stereo unspecified), the GI50 in [1] was > 100 µM (inactive); in assay [2] it was > 100 µM (inactive); in assay [3], > 100 µM (inactive); in [4], > 100 µM (inactive); in assay [5], > 10 µM (inactive); in assay [6] it was > 100 µM (inactive). Further, the GI50 was 71.4 µM (inactive) in assay [8]; > 100 µM (inactive) in assay [9]; > 100 µM (inactive) in assay [10]; > 100 µM (inactive) in [11]; > 100 µM (inactive) in assay [12]; 48.4 µM (inactive) in assay [13]. Besides, the GI50 in assay [14] was > 100 µM (inactive); in [15], above 100 µM; in [16], > 100 µM (inactive); in assay [17], > 100 µM (inactive); in [18], > 100 µM (inactive); in [19] it was > 100 µM (inactive).

In the case of `O=C(O)C1CC2(C1)CC(C(=O)O)C2` (stereo unspecified), the GI50 in assay [1], in assay [2], in assay [3], in assay [4], in [5] and in [6] was > 100 µM (inactive) each time. In addition, the GI50 in assay [7], in assay [9], in [10], in assay [11], in assay [12] and in assay [13] was > 100 µM (inactive) in each case. For the same compound, the GI50 in [14] was > 100 µM (inactive); in [15] it was above 100 µM; in assay [20] it was > 100 µM (inactive); in assay [17], > 100 µM (inactive); in assay [18], > 100 µM (inactive); in assay [19], > 100 µM (inactive).

Regarding `COI1NC(=O)c2ccccc21`, the GI50 in [1], in assay [2], in [3], in assay [4], in [5] and in [6] was > 100 µM (inactive) in each case. In addition, the GI50 in assay [8], in assay [9], in [10], in [12], in assay [13] and in assay [14] was > 100 µM (inactive) each time. In addition, the GI50 in assay [15] was above 100 µM; in [16], > 100 µM (inactive); in assay [20] it was > 100 µM (inactive); in assay [17], > 100 µM (inactive); in [18], > 100 µM (inactive); in assay [19], > 100 µM (inactive).

For the compound `O=c1oc2ccc(Cl)cc2cc1-c1cn2ccsc2n1`, the GI50 in [1] was 51.9 µM (inactive); in assay [2] it was 61.1 µM (inactive); in [3], 57.7 µM (inactive); in assay [4], 26.6 µM (inactive); in assay [5], 34.3 µM (inactive); in assay [6], > 100 µM (inactive). Further, the GI50 in assay [7] is 45.8 µM (inactive); in assay [8], 12.4 µM (inactive); in assay [9] it was 51.9 µM (inactive); in assay [10] it was 36.6 µM (inactive); in [11] it was 34.1 µM (inactive); in [12] it was 40 µM (inactive). For the same compound, the GI50 in [13] is 24.8 µM (inactive); in assay [14], > 100 µM (inactive); in [15], 36.1 µM; in assay [16] it was 29.4 µM (inactive); in assay [17], 36.1 µM (inactive); in assay [18], 29.2 µM (inactive). Besides, the GI50 in assay [19] is 46.8 µM (inactive).

For the compound `COC(=O)CCCC(=O)O`, the GI50 in [1], in assay [2], in assay [3], in assay [4], in assay [5] and in assay [6] was > 100 µM (inactive) each time. The GI50 in assay [7], in assay [8], in [9], in assay [10], in assay [12] and in [13] was > 100 µM (inactive) each time. In addition, the GI50 in assay [14] is > 100 µM (inactive); in assay [15], above 100 µM; in [16], > 100 µM (inactive); in [20] it was > 100 µM (inactive); in [17], > 100 µM (inactive); in assay [18], > 100 µM (inactive). Also, the GI50 in assay [19] is > 100 µM (inactive).

As for `OCCN(C1=NCCN1)/[N+](=C/c1ccccc1O)[CH-]c1ccccc1O`, the GI50 in [1] is > 100 µM (inactive); in assay [2], 83.6 µM (inactive); in [3], > 100 µM (inactive); in [4] it was > 100 µM (inactive); in [5], > 100 µM (inactive); in [6], > 100 µM (inactive). The GI50 in assay [9], in assay [10], in assay [11], in assay [12], in assay [13] and in assay [14] was > 100 µM (inactive) throughout. Also, the GI50 in assay [15] was 51.5 µM; in assay [16], > 100 µM (inactive); in assay [20], > 100 µM (inactive); in assay [17], > 100 µM (inactive); in assay [18] it was > 100 µM (inactive); in assay [19], > 100 µM (inactive).
